Reference: patent US8735411B2, “Macrocyclic benzofused pyrimidine derivatives” (AbbVie Inc., priority 2006, dated 2014)

molecular target: histamine H4 receptor (Homo sapiens, UniProt Q9H3N8); test: In vitro histamine H4 potency in FLIPR (Ca2+ flux, HEK-293 cells coexpressing Gαqi5); format: cell-based; parameters: expressed in transfected cells; details: Kb for antagonists and inverse agonists, EC50 for partial agonists
Description: There are many methods available to show the effectiveness of compounds as histamine H4 receptor ligands. Histamine H4 receptors from mammalian species have been cloned. Methods to clone, express, and assess the potency and functional activity of such cloned genes are well known to those skilled in the art of molecular biology. […] Before testing, cells are loaded with a Ca^+2 sensitive fluorescent dye, in this case Fluo-4. In the case of partial agonist or agonist ligands, addition of compound to the cells leads to the increase in intracellular Ca^+2 which is detected by FLIPR (Fluorescence Imaging Plate Reader; Molecular Devices, Sunnyvale, Calif.) technology. […] The fluorescence intensities measured before addition of the test compound are subtracted from the fluorescence intensities at later time points. Peak response values determined at each concentration of ligand are expressed as a percentage of the response obtained with the full agonist histamine. Concentration versus response data are analyzed to obtain compound potency as Kb values for antagonists and inverse agonists and as EC50 values for partial agonists.

Chain of histamine H4 receptor (Q9H3N8 whole entry): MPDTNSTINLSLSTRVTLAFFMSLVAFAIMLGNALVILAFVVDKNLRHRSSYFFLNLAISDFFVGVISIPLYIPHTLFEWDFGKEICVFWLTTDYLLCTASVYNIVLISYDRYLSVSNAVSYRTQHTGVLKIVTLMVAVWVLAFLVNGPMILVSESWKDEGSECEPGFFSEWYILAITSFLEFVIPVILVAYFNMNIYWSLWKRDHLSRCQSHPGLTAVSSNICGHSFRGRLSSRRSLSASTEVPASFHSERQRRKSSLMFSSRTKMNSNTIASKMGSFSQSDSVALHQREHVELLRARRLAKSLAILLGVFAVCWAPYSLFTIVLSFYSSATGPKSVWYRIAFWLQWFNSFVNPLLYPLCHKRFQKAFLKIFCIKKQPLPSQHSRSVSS

Structure (SMILES)	Potency
Nc1nc2c(c(N3CC4CCCNC4C3)n1)CCCc1cc3c(cc1-2)CCCC3 (stereo not drawn) [Example 98, 4-(Octahydro-pyrrolo[3,4-b]pyridin-6-yl)-6,7,9,10,11,12-hexahydro-5H-1,3-diaza-benzo[3,4]cyclohepta[1,2-b]naphthalen-2-ylamine]	52 nM
CN[C@@H]1CCN(c2nc(N)nc3c2CCCCc2ccccc2-3)C1 [Example 54, 4-[(3R)-3-(methylamino)pyrrolidin-1-yl]-5,6,7,8-tetrahydrobenzo[7,8]cycloocta[1,2-d]pyrimidin-2-amine]	32 nM
Nc1nc2c(c(N3CC4CNCC4C3)n1)CCCc1ccccc1-2 (stereo not drawn) [Example 22, 4-(Hexahydro-pyrrolo[3,4-c]pyrrol-2-yl)-6,7-dihydro-5H-benzo[6,7]cyclohepta[1,2-d]pyrimidin-2-ylamine]	66 nM
c1ccc2c(c1)CCCc1c-2ncnc1N1CCNCC1 [Example 118, 4-Piperazin-1-yl-6,7-dihydro-5H-benzo[6,7]cyclohepta[1,2-d]pyrimidine]	138 nM
Nc1nc2c(c(N3CC[C@@H]4CNC[C@@H]43)n1)CCCCc1ccccc1-2 [Example 58, 4-[(3aR,6aR)-hexahydropyrrolo[3,4-b]pyrrol-1(2H)-yl]-5,6,7,8-tetrahydrobenzo[7,8]cycloocta[1,2-d]pyrimidin-2-amine]	182 nM
Nc1nc2c(c(N3CCC4(CCCCN4)CC3)n1)CCCc1ccccc1-2 [Example 75, 4-(1,9-Diaza-spiro[5.5]undec-9-yl)-6,7-dihydro-5H-benzo[6,7]cyclohepta[1,2-d]pyrimidin-2-ylamine]	4898 nM
CN[C@@H]1CCN(c2nc(N)nc3c2CCOc2c(Cl)cccc2-3)C1 [Example 51, 8-chloro-4-[(3R)-3-(methylamino)pyrrolidin-1-yl]-5,6-dihydro[1]benzoxepino[5,4-d]pyrimidin-2-amine]	41 nM
Nc1nc2c(c(N3CCNCC3)n1)CCCCc1ccccc1-2 [Example 20, 4-Piperazin-1-yl-5,6,7,8-tetrahydro-1,3-diaza-dibenzo[a,c]cycloocten-2-ylamine]	32 nM
CN1CCCC(Oc2nc(N)nc3c2CCCc2ccccc2-3)C1 (stereo not drawn) [Example 69, 4-(1-Methyl-piperidin-3-yloxy)-6,7-dihydro-5H-benzo[6,7]cyclohepta[1,2-d]pyrimidin-2-ylamine]	3162 nM
CC(=O)Nc1nc2c(c(N3CCNCC3)n1)CCCc1ccccc1-2 [Example 83, N-(4-Piperazin-1-yl-6,7-dihydro-5H-benzo[6,7]cyclohepta[1,2-d]pyrimidin-2-yl)-acetamide]	2951 nM
N#Cc1ccc2c(c1)OCCc1c-2nc(N)nc1N1CC2CCCNC2C1 (stereo not drawn) [Example 104, 2-Amino-4-octahydro-pyrrolo[3,4-b]pyridin-6-yl-5,6-dihydro-7-oxa-1,3-diaza-dibenzo[a,c]cycloheptene-9-carbonitrile]	141 nM
Nc1nc(NC[C@H]2CCN2)c2c(n1)-c1ccccc1CCC2 [Example 64, N^4-[(2R)-azetidin-2-ylmethyl]-6,7-dihydro-5H-benzo[6,7]cyclohepta[1,2-d]pyrimidine-2,4-diamine]	1549 nM
Nc1nc2c(c(N3CC4CCCNC4C3)n1)CCCc1ccc(F)cc1-2 (stereo not drawn) [Example 115, 10-fluoro-4-octahydro-6H-pyrrolo[3,4-b]pyridin-6-yl-6,7-dihydro-5H-benzo[6,7]cyclohepta[1,2-d]pyrimidin-2-amine]	32 nM
CN1CC[C@@H](Oc2nc(N)nc3c2CCCc2ccccc2-3)C1 [Example 70, 4-((R)-1-Methyl-pyrrolidin-3-yloxy)-6,7-dihydro-5H-benzo[6,7]cyclohepta[1,2-d]pyrimidin-2-ylamine]	37 nM
CN[C@@H]1CCN(c2nc(N)nc3c2CCc2ccccc2-3)C1 [Example 39, 4-(3-(R)-Methylamino-pyrrolidin-1-yl)-5,6-dihydro-benzo[h]quinazolin-2-ylamine]	22 nM
Nc1nc2c(c(N3C[C@@H]4C[C@H]3CN4)n1)CCCc1ccccc1-2 [Example 17, 4-((1S,4S)-2,5-Diaza-bicyclo[2.2.1]hept-2-yl)-6,7-dihydro-5H-benzo[6,7]cyclohepta[1,2-d]pyrimidin-2-ylamine]	912 nM
Nc1nc2c(c(N3CC(N)C3)n1)CCCCc1ccccc1-2 [Example 57, 4-(3-aminoazetidin-1-yl)-5,6,7,8-tetrahydrobenzo[7,8]cycloocta[1,2-d]pyrimidin-2-amine]	562 nM
Nc1nc(NCCCN2CCCCC2)c2c(n1)-c1ccccc1CCC2 [Example 113, N^4-(3-Piperidin-1-yl-propyl)-6,7-dihydro-5H-benzo[6,7]cyclohepta[1,2-d]pyrimidine-2,4-diamine]	4266 nM

Structure (SMILES)	Potency
CN[C@@H]1CCN(c2nc(N)nc3c2SCCc2ccccc2-3)C1 [Example 107, 4-((R)-3-Methylamino-pyrrolidin-1-yl)-6,7-dihydro-5-thia-1,3-diaza-dibenzo[a,c]cyclohepten-2-ylamine]	11 nM
Nc1nc2c(c(N3CCCNCC3)n1)CCCc1ccccc1-2 [Example 116, 4-[1,4]Diazepan-1-yl-6,7-dihydro-5H-benzo[6,7]cyclohepta[1,2-d]pyrimidin-2-ylamine]	15 nM
CN[C@@H]1CCN(c2nc(N)nc3c2COc2ccccc2-3)C1 [Example 9, 1-(3-(R)-Methylamino-pyrrolidin-1-yl)-10H-9-oxa-2,4-diaza-phenanthren-3-ylamine]	32 nM
Nc1nc2c(c(N3CC4(CCCNC4)C3)n1)CCCc1ccccc1-2 [Example 77, 4-(2,6-Diaza-spiro[3.5]non-2-yl)-6,7-dihydro-5H-benzo[6,7]cyclohepta[1,2-d]pyrimidin-2-ylamine]	9333 nM
CN[C@@H]1CCN(c2nc(N)nc3c2[S+]([O-])CCc2ccccc2-3)C1 (stereo partly drawn) [Example 112, 4-((R)-3-Methylamino-pyrrolidin-1-yl)-5-oxo-6,7-dihydro-5-thia-1,3-diaza-dibenzo[a,c]cyclohepten-2-ylamine]	2455 nM
CN(C)CCNc1nc2c(c(N3CCNCC3)n1)CCCc1ccccc1-2 [Example 95, N,N-Dimethyl-N′-(4-piperazin-1-yl-6,7-dihydro-5H-benzo[6,7]cyclohepta[1,2-d]pyrimidin-2-yl)-ethane-1,2-diamine]	1413 nM
CNc1nc2c(c(N3CCNCC3)n1)CCCc1ccccc1-2 [Example 123, Methyl-(4-piperazin-1-yl-6,7-dihydro-5H-benzo[6,7]cyclohepta[1,2-d]pyrimidin-2-yl)-amine]	1622 nM
CNC1CN(c2nc(N)nc3c2CCCc2ccc(F)cc2-3)C1 [Example 12, 10-Fluoro-4-(3-methylamino-azetidin-1-yl)-6,7-dihydro-5H-benzo[6,7]cyclohepta[1,2-d]pyrimidin-2-ylamine]	7.4 nM
COC(=O)N(C)c1ccc2c(c1)-c1nc(N)nc(N3CCNCC3)c1CCC2 [Example 128, (2-Amino-4-piperazin-1-yl-6,7-dihydro-5H-benzo[6,7]cyclohepta[1,2-d]pyrimidin-10-yl)-methyl-carbamic acid methyl ester]	562 nM
Nc1nc2c(c(N3CC4CCCNC4C3)n1)CCSc1ccccc1-2 (stereo not drawn) [Example 96, 4-(Octahydro-pyrrolo[3,4-b]pyridin-6-yl)-5,6-dihydro-7-thia-1,3-diaza-dibenzo[a,c]cyclohepten-2-ylamine]	19 nM
CN(C)[C@@H]1CCN(c2nc(N)nc3c2CCCc2ccccc2-3)C1 [Example 76, 4-((R)-3-Dimethylamino-pyrrolidin-1-yl)-6,7-dihydro-5H-benzo[6,7]cyclohepta[1,2-d]pyrimidin-2-ylamine]	55 nM
COC(=O)c1nc2c(c(N3CC4CCCNC4C3)n1)CCCc1ccccc1-2 (stereo not drawn) [Example 133, 4-(Octahydro-pyrrolo[3,4-b]pyridin-6-yl)-6,7-dihydro-5-benzo[6,7]cyclohepta[1,2-d]pyrimidine-2-carboxylic acid methyl ester]	14454 nM
Nc1nc2c(c(N3C[C@@H]4CN[C@@H]4C3)n1)CCCc1ccccc1-2 [Example 120, (1S,5S)-4-(3,6-Diaza-bicyclo[3.2.0]hept-3-yl)-6,7-dihydro-5H-benzo[6,7]cyclohepta[1,2-d]pyrimidin-2-ylamine]	603 nM
Nc1nc2c(c(N3C[C@H]4CNC[C@H]43)n1)CCCc1ccccc1-2 [Example 117, (1R,5S)-4-(3,6-Diaza-bicyclo[3.2.0]hept-6-yl)-6,7-dihydro-5H-benzo[6,7]cyclohepta[1,2-d]pyrimidin-2-ylamine]	12 nM
Nc1nc2c(c(N3CC4CCNCC4C3)n1)CCCc1ccccc1-2 (stereo not drawn) [Example 79, 4-(Octahydro-pyrrolo[3,4-c]pyridin-2-yl)-6,7-dihydro-5H-benzo[6,7]cyclohepta[1,2-d]pyrimidin-2-ylamine]	89 nM
O=C(O)c1nc2c(c(N3CC4CCCNC4C3)n1)CCCc1ccccc1-2 (stereo not drawn) [Example 134, 4-(Octahydro-pyrrolo[3,4-b]pyridin-6-yl)-6,7-dihydro-5H-benzo[6,7]cyclohepta[1,2-d]pyrimidine-2-carboxylic acid]	11885 nM
Nc1nc2c(c(N3CCNCC3)n1)COc1ccccc1-2 [Example 10, 1-Piperazin-1-yl-10H-9-oxa-2,4-diaza-phenanthren-3-ylamine]	10 nM
CN[C@@H]1CCN(c2nc(N)nc3c2CCOc2ccc(C)cc2-3)C1 [Example 46, 10-methyl-4-[(3R)-3-(methylamino)pyrrolidin-1-yl]-5,6-dihydro[1]benzoxepino[5,4-d]pyrimidin-2-amine]	100 nM
